Where “and” joins values, the source holds several entries; their conditions need not be identical. Identical values can stand only once.
Tested on: Hs578T multi-cell spheroids, viability
Assay: Anticancer human tumor Hs578T cell line growth inhibition [IpAb];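 further: drug exposure lasted 7 days before readout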
Details: for viability, T/C: stronger effect = lower value
Method in brief: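 Multi-cell spheroids of 60% tumour cells, 25% HUVEC and 15% MSC in ultra-low-attachment U-bottom wells, treated with agents combined with ipatasertib or abemaciclib. Half-log ranges top out near clinical Cmax, or 10 microM when Cmax is unknown.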

[1] = curve of first compound, second compound 0.1 µM
[2] = curve of first compound, second compound 0.316 µM
[3] = curve of first compound, second compound 1 µM
[4] = curve of first compound, second compound 3.16 µM
[5] = curve of first compound, second compound 10 µM

Cn1cnc2c(F)c(Nc3ccc(Br)cc3Cl)c(C(=O)NOCCO)cc21 + CC(C)NCC(C(=O)N1CCN(c2ncnc3c2C(C)CC3O)CC1)c1ccc(Cl)cc1
IC50 [1]: 2310 nM
IC50 [2]: 1200 nM
IC50 [3]: 400 nM
IC50 [4]: 123 nM
IC50 [5]: 26.5 nM
viability, T/C (second compound 0.1 µM, first compound 0.00949 µM): 96.2%
viability, T/C (second compound 0.1 µM, first compound 0.03 µM): 91.8%
viability, T/C (second compound 0.1 µM, first compound 0.0949 µM): 85.3%
viability, T/C (second compound 0.1 µM, first compound 0.3 µM): 84.2%
viability, T/C (second compound 0.1 µM, first compound 0.949 µM): 74.8%
viability, T/C (second compound 0.1 µM, first compound 3 µM): 42.8%
viability, T/C (second compound 0.316 µM, first compound 0.00949 µM): 87.7%
viability, T/C (second compound 0.316 µM, first compound 0.03 µM): 86.2%
viability, T/C (second compound 0.316 µM, first compound 0.0949 µM): 83.4%
viability, T/C (second compound 0.316 µM, first compound 0.3 µM): 64.9%
viability, T/C (second compound 0.316 µM, first compound 0.949 µM): 58%
viability, T/C (second compound 0.316 µM, first compound 3 µM): 30.4%
viability, T/C (second compound 1 µM, first compound 0.00949 µM): 77%
viability, T/C (second compound 1 µM, first compound 0.03 µM): 72%
viability, T/C (second compound 1 µM, first compound 0.0949 µM): 63.1%
viability, T/C (second compound 1 µM, first compound 0.3 µM): 54.4%
viability, T/C (second compound 1 µM, first compound 0.949 µM): 39.2%
viability, T/C (second compound 1 µM, first compound 3 µM): 19.3%
viability, T/C (second compound 3.16 µM, first compound 0.00949 µM): 53.8%
viability, T/C (second compound 3.16 µM, first compound 0.03 µM): 52.2%
viability, T/C (second compound 3.16 µM, first compound 0.0949 µM): 47.9%
viability, T/C (second compound 3.16 µM, first compound 0.3 µM): 49.4%
viability, T/C (second compound 3.16 µM, first compound 0.949 µM): 35.2%
viability, T/C (second compound 3.16 µM, first compound 3 µM): 12.4%
viability, T/C (second compound 10 µM, first compound 0.00949 µM): 52.6%
viability, T/C (second compound 10 µM, first compound 0.03 µM): 50.1%
viability, T/C (second compound 10 µM, first compound 0.0949 µM): 42.2%
viability, T/C (second compound 10 µM, first compound 0.3 µM): 43.1%
viability, T/C (second compound 10 µM, first compound 0.949 µM): 23.2%
viability, T/C (second compound 10 µM, first compound 3 µM): 5.18%

Cn1nccc1Nc1nccc(-c2ccn(C(CO)c3ccc(Cl)c(F)c3)c(=O)c2)n1 (configuration not stated)
viability, T/C (compound 0.0316 µM): 104% and 107%
viability, T/C (compound 0.1 µM): 114% and 115%
viability, T/C (compound 0.316 µM): 118% and 128%
viability, T/C (compound 1 µM): 90.7% and 94%
viability, T/C (compound 3.16 µM): 70.3% and 65.2%
viability, T/C (compound 10 µM): 24.4% and 35.9%
IC50 (curve of compound): 5130 nM and 5580 nM

Cc1nc(NC(=O)N2CCCC2C(N)=O)sc1-c1ccnc(C(C)(C)C(F)(F)F)c1 (configuration not stated) + CC(C)NCC(C(=O)N1CCN(c2ncnc3c2C(C)CC3O)CC1)c1ccc(Cl)cc1
IC50 [1]: 1600 nM
IC50 [2]: 977 nM
IC50 [3]: 491 nM
IC50 [4]: 101 nM
IC50 [5]: < 31.6 nM
viability, T/C (second compound 0.1 µM, first compound 0.0316 µM): 96.8%
viability, T/C (second compound 0.1 µM, first compound 0.1 µM): 87.8%
viability, T/C (second compound 0.1 µM, first compound 0.316 µM): 70.8%
viability, T/C (second compound 0.1 µM, first compound 1 µM): 57.4%
viability, T/C (second compound 0.1 µM, first compound 3.16 µM): 42.6%
viability, T/C (second compound 0.1 µM, first compound 10 µM): 11.7%
viability, T/C (second compound 0.316 µM, first compound 0.0316 µM): 80.1%
viability, T/C (second compound 0.316 µM, first compound 0.1 µM): 71.3%
viability, T/C (second compound 0.316 µM, first compound 0.316 µM): 57.1%
viability, T/C (second compound 0.316 µM, first compound 1 µM): 48.7%
viability, T/C (second compound 0.316 µM, first compound 3.16 µM): 41%
viability, T/C (second compound 0.316 µM, first compound 10 µM): 13.9%
viability, T/C (second compound 1 µM, first compound 0.0316 µM): 61.8%
viability, T/C (second compound 1 µM, first compound 0.1 µM): 61.4%
viability, T/C (second compound 1 µM, first compound 0.316 µM): 53.9%
viability, T/C (second compound 1 µM, first compound 1 µM): 42.3%
viability, T/C (second compound 1 µM, first compound 3.16 µM): 30.6%
viability, T/C (second compound 1 µM, first compound 10 µM): 8.93%
viability, T/C (second compound 3.16 µM, first compound 0.0316 µM): 53.6%
viability, T/C (second compound 3.16 µM, first compound 0.1 µM): 51%
viability, T/C (second compound 3.16 µM, first compound 0.316 µM): 44.1%
viability, T/C (second compound 3.16 µM, first compound 1 µM): 35%
viability, T/C (second compound 3.16 µM, first compound 3.16 µM): 32.5%
viability, T/C (second compound 3.16 µM, first compound 10 µM): 9.58%
viability, T/C (second compound 10 µM, first compound 0.0316 µM): 45.3%
viability, T/C (second compound 10 µM, first compound 0.1 µM): 42.1%
viability, T/C (second compound 10 µM, first compound 0.316 µM): 39.2%
viability, T/C (second compound 10 µM, first compound 1 µM): 28.8%
viability, T/C (second compound 10 µM, first compound 3.16 µM): 21.8%
viability, T/C (second compound 10 µM, first compound 10 µM): 1.81%

— PubChem BioAssay AID2060331 (Molecular Pharmacology Branch, DTP, NCI, 2025)
